From the supplement of paper PMC11451515

Tested on: SEM cells
Assay: cell viability relative to DMSO control; higher = less cytotoxic
Settings: 48 h
Outline: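 Before seeding, each leukemia line was adapted for at least four passages in each medium. NOMO1 or SEM cells (500 cells/well) and P12-Ichikawa cells (1000 cells/well) went into 1536-well plates at 5 μl, then received library compounds in DMSO by pin dosing across 11 threefold concentrations, 47 μM to 0.79 nM. Readout was CellTiter-Glo One luminescence after 48 h at 37°C, and viability is given as a per-plate percentage of DMSO wells, with cell-free wells as background.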

[1] = HPLM + 10% dialyzed FBS, 0.000781 µM
[2] = HPLM + 10% dialyzed FBS, 0.00234 µM
[3] = HPLM + 10% dialyzed FBS, 0.00702 µM
[4] = HPLM + 10% dialyzed FBS, 0.0211 µM
[5] = HPLM + 10% dialyzed FBS, 0.0632 µM
[6] = HPLM + 10% dialyzed FBS, 0.19 µM
[7] = HPLM + 10% dialyzed FBS, 0.569 µM
[8] = HPLM + 10% dialyzed FBS, 1.71 µM
[9] = HPLM + 10% dialyzed FBS, 5.12 µM
[10] = HPLM + 10% dialyzed FBS, 15.4 µM
[11] = HPLM + 10% dialyzed FBS, 46.1 µM
[12] = RPMI 5 mM glucose + 10% FBS, 0.000781 µM
[13] = RPMI 5 mM glucose + 10% FBS, 0.00234 µM
[14] = RPMI 5 mM glucose + 10% FBS, 0.00702 µM
[15] = RPMI 5 mM glucose + 10% FBS, 0.0211 µM
[16] = RPMI 5 mM glucose + 10% FBS, 0.0632 µM
[17] = RPMI 5 mM glucose + 10% FBS, 0.19 µM
[18] = RPMI 5 mM glucose + 10% FBS, 0.569 µM
[19] = RPMI 5 mM glucose + 10% FBS, 1.71 µM
[20] = RPMI 5 mM glucose + 10% FBS, 5.12 µM
[21] = RPMI 5 mM glucose + 10% FBS, 15.4 µM
[22] = RPMI 5 mM glucose + 10% FBS, 46.1 µM
[23] = RPMI 5 mM glucose + 10% dialyzed FBS, 0.000781 µM
[24] = RPMI 5 mM glucose + 10% dialyzed FBS, 0.00234 µM
[25] = RPMI 5 mM glucose + 10% dialyzed FBS, 0.00702 µM
[26] = RPMI 5 mM glucose + 10% dialyzed FBS, 0.0211 µM
[27] = RPMI 5 mM glucose + 10% dialyzed FBS, 0.0632 µM
[28] = RPMI 5 mM glucose + 10% dialyzed FBS, 0.19 µM
[29] = RPMI 5 mM glucose + 10% dialyzed FBS, 0.569 µM
[30] = RPMI 5 mM glucose + 10% dialyzed FBS, 1.71 µM
[31] = RPMI 5 mM glucose + 10% dialyzed FBS, 5.12 µM
[32] = RPMI 5 mM glucose + 10% dialyzed FBS, 15.4 µM
[33] = RPMI 5 mM glucose + 10% dialyzed FBS, 46.1 µM

Compound	cell viability [1]	cell viability [2]	cell viability [3]	cell viability [4]	cell viability [5]	cell viability [6]	cell viability [7]	cell viability [8]	cell viability [9]	cell viability [10]	cell viability [11]	cell viability [12]	cell viability [13]	cell viability [14]	cell viability [15]	cell viability [16]	cell viability [17]	cell viability [18]	cell viability [19]	cell viability [20]	cell viability [21]	cell viability [22]	cell viability [23]	cell viability [24]	cell viability [25]	cell viability [26]	cell viability [27]	cell viability [28]	cell viability [29]	cell viability [30]	cell viability [31]	cell viability [32]	cell viability [33]
COc1cc(NCc2ccc3nc(N)nc(N)c3c2C)cc(OC)c1OC	78.1%	89.2%	91.1%	100%	99.6%	104%	99.7%	38.1%	40.3%	32.5%	12.1%	69.1%	94.4%	84.9%	84.9%	96.8%	93.2%	96.8%	24.4%	98.4%	72.5%	3.26%	74.5%	89.3%	88.6%	82.3%	94.4%	94.8%	102%	23.9%	62.9%	35.7%	3.29%
CNC[C@H](O)[C@@H](O)[C@H](O)[C@H](O)CO	96.3%	106%	103%	106%	106%	114%	127%	63.4%	121%	40.9%	112%	103%	96.2%	107%	93.9%	117%	115%	132%	61.3%	112%	24.9%	114%	98.1%	118%	98.8%	88.8%	116%	103%	122%	58.3%	136%	28%	119%
C[C@@H]1CC[C@@]2(CC[C@]3(C)\C(=C/C[C@@H]4[C@@]5(C)CC[C@H](O)C(C)(C)[C@@H]5CC[C@@]34C)[C@@H]2[C@H]1C)C(O)=O	85.6%	109%	111%	110%	112%	116%	123%	122%	108%	117%	121%	105%	101%	108%	96.2%	113%	123%	109%	99.2%	102%	114%	61.6%	107%	116%	114%	111%	112%	118%	118%	136%	129%	118%	110%
CC(C)c1onc(-c2c(Cl)cccc2Cl)c1COc1ccc(/C=C/c2cccc(C(=O)O)c2)c(Cl)c1	122%	130%	114%	120%	121%	129%	115%	116%	125%	108%	91.5%	117%	119%	109%	128%	127%	120%	105%	120%	115%	106%	85.7%	119%	134%	120%	146%	132%	128%	118%	117%	115%	104%	95.1%
CC1(C)CC\C2=C(/O1)C3=C(C=CC=C3)C(=O)C2=O	103%	117%	86.2%	112%	113%	110%	98.8%	94.7%	95%	78.9%	4.79%	127%	115%	94.1%	124%	129%	117%	117%	102%	108%	76.3%	3.64%	105%	121%	95.4%	102%	114%	119%	100%	84.5%	72.9%	55.8%	2.69%
Oc1cc(-c2nc(-c3ccccc3)[nH]c2-c2ccncc2)ccc1Cl	105%	115%	118%	110%	104%	122%	103%	104%	107%	100%	80.3%	120%	114%	115%	117%	107%	111%	122%	116%	106%	111%	45.2%											
C=CC(=O)Nc1cccc(Sc2nc(Nc3ccc(N4CCN(C)CC4)cc3)ncc2Cl)c1	91.4%	105%	113%	116%	114%	116%	104%	86.4%	71.1%	86%	3.8%	53.5%	68.7%	81.6%	69.1%	82.7%	81.2%	91.7%	60.6%	41.3%	65.9%	2.06%	88.8%	98.2%	97.6%	99.9%	118%	114%	72.9%	80.9%	57.3%	58.5%	2.75%
CC1(C)SCCN([S+](=O)([O-])c2ccc(OCC#CCO)cc2)[C@H]1C(=O)NO	97.8%	96.3%	109%	112%	104%	99.6%	102%	89.5%	91.3%	86.6%	80.8%	129%	116%	115%	123%	109%	107%	105%	104%	106%	91.4%	88.1%	105%	109%	105%	103%	91.1%	94.3%	107%	90.1%	78.9%	74.1%	69.5%
CCCOc1ccc(C(=O)OCCN(CC)CC)cc1N	85.3%	105%	29.3%	105%	104%	118%	122%	104%	108%	114%	97.7%	94.6%	110%	10.1%	118%	115%	107%	114%	116%	105%	120%	96.3%	80%	88%	23.2%	104%	99.3%	104%	95.8%	98.1%	106%	102%	85.3%
CN(C)C/C=C/C(=O)Nc1ccc(C(=O)Nc2cccc(Nc3ncc(Cl)c(-c4c[nH]c5ccccc45)n3)c2)cc1	75.1%	79.4%	90%	62.5%	85.8%	47.6%	4.17%	3.85%	3.85%	3.77%	3.63%	97.5%	122%	128%	129%	120%	68%	5.08%	6.09%	5.71%	6.09%	6.13%	83.4%	76.3%	103%	73.3%	78.8%	43.6%	4.95%	4.94%	4.59%	4.42%	4.34%
Oc1ccc(OCc2ccccc2)cc1	89.8%	106%	98.9%	113%	20.8%	103%	106%	97.1%	92.5%	47.7%	28.7%	103%	106%	108%	110%	13.6%	113%	114%	104%	77.6%	58.3%	31.6%	112%	114%	130%	119%	47.4%	109%	126%	109%	98.9%	69.2%	30.3%
CC(C(C)N1CC(=O)NC(=O)C1)N1CC(=O)NC(=O)C1 (stereo not given)	97.2%	136%	116%	125%	116%	128%	123%	106%	95.2%	58.4%	40.5%	73.4%	79.9%	101%	102%	92%	104%	80.8%	60.1%	49%	31%	19.7%	86%	93.3%	120%	134%	122%	115%	128%	91.3%	65.7%	39.1%	35.1%
Cc1ccc([C@@H]2O[C@H](CO)[C@@H](O)[C@H](O)[C@H]2O)cc1Cc1ccc(-c2ccc(F)cc2)s1	108%	112%	117%	112%	130%	114%	119%	115%	110%	125%	101%	109%	117%	112%	122%	114%	117%	123%	121%	111%	118%	69.5%	113%	103%	106%	118%	132%	119%	109%	98.7%	107%	116%	71.2%
Nc1n[nH]c2nnc(-c3c(-c4ccccc4)nn4ccccc34)cc12	93.5%	109%	109%	115%	116%	127%	124%	109%	113%	92.2%	9.4%	113%	114%	107%	121%	122%	131%	121%	117%	117%	100%	17.3%	116%	102%	119%	126%	114%	125%	134%	123%	137%	116%	21%
COc1ccc(CCC(=O)c2c(O)cc(O[C@@H]3O[C@H](CO)[C@@H](O)[C@H](O)[C@H]3O[C@@H]3O[C@@H](C)[C@H](O)[C@@H](O)[C@H]3O)cc2O)cc1O	112%	115%	120%	128%	128%	119%	128%	119%	134%	124%	116%																						
COc1cc2c(cc1OC)[C@@H]1Cc3ccc(OC)c(OC)c3CN1CC2	94.1%	123%	118%	123%	114%	119%	121%	122%	117%	109%	109%	110%	108%	103%	111%	104%	109%	99.3%	93.9%	99.4%	102%	78.4%	97.9%	108%	113%	112%	129%	124%	108%	133%	122%	120%	82.2%
